Data reported in patent US20120021967A1, “SYNTHETIC ANTIBODIES” (Arizona Board of Regents, A Body Corporate of the State Of …, priority 2008, published 2012).
Bridges are numbered along the chain shown (N, C = ends). Roman numbers before positions name the chains, in order. Where no end group is shown, it is not given here.

Key:
transferrin [1] = biological target: T1, transferrin (Homo sapiens, UniProt P02787); test: SPR of lysine-linked synbodies on immobilized transferrin, Kd from kinetics; assay type: binding; details: Kd determined from kinetics; read-out: Kd with respect to transferrin
T1 sequence (P02787 20-698): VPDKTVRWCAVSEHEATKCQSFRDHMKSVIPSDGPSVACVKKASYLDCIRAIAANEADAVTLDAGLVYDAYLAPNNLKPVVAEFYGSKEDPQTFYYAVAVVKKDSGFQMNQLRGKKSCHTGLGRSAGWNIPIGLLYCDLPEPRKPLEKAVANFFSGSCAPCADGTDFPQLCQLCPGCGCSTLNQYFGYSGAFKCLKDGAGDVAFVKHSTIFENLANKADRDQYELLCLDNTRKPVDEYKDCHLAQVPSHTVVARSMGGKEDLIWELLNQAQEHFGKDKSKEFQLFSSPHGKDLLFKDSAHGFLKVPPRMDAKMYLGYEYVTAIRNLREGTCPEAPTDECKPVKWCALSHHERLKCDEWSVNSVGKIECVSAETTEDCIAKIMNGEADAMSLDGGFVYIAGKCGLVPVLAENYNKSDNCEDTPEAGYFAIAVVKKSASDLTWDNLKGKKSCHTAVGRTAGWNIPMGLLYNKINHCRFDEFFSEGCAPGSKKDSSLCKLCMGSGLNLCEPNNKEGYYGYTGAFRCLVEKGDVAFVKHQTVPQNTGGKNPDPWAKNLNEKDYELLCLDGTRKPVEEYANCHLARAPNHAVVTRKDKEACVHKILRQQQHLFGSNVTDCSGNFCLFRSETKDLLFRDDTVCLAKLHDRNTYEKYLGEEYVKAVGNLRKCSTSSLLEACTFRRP
Procedure: Transferrin 25 μg/ml in immobilization buffer selected for correct pH was then applied 302 at a flow rate of 5 to 10 μl/min for a contact time of about 5 to 10 minutes, allowing the amine functionality on the transferrin 308 to displace the activated NHS ester and bond to the surface via an amide bond. Finally, ethylene diamine (1-Methylene diamine-HCl at pH 8.5) was applied 304 at a flow rate of 5 to 10 μl/min for a contact time of about 6 to 7 minutes to deactivate any remaining reactive groups on the dextran chip surface. Flow rates and contact times are adjusted as necessary to provide the surface concentration of target desired for the intended application, and may vary by target. In general, for evaluating whether binding occurs, it is preferable to immobilize a relatively large quantity of target, and higher flow rates and/or longer contact times may be used. For determining kinetics, it is preferable to limit the amount of target immobilized so as to minimize rebinding and avidity effects, and lower flow rates and/or contact times may be used.
Candidate affinity elements for the transferrin synbody TRF19, TRF21, TRF23, TRF24, TRF25, and TRF26 were individually evaluated for solution phase KD with respect to transferrin by SPR analysis. […]

AKT1 = AKT1 (Homo sapiens, UniProt P31749); test: SPR of SYN23-26 binding to AKT1; details: read-out: estimated Kd with respect to AKT1
Sequence of AKT1 (P31749 whole entry): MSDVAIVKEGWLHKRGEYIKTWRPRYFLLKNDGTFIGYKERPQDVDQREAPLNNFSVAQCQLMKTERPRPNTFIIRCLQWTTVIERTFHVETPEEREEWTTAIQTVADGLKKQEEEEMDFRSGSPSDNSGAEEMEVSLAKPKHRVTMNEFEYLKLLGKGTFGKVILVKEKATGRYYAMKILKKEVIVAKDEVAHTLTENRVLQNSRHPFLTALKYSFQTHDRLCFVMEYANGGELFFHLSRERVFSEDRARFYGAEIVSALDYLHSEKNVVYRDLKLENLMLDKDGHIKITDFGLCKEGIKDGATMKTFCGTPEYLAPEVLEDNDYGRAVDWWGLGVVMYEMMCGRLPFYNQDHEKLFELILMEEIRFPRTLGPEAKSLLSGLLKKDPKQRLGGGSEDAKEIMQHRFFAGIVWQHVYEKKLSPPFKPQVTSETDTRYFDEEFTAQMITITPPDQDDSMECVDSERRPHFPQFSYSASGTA

transferrin [2] = biological target: T1, transferrin; test: SPR of SYN23-26 binding to transferrin; details: read-out: estimated Kd with respect to transferrin
[3] = test system: 8,000 human proteins (GST fusion); test: Invitrogen Protoarray Human Protein Microarray binding pattern (8,000 features); details: fluorescence intensity on human protein microarray
Procedure: Two biotinylated anti-TRF synbodies (SYN23-26 and SYN 21-22) were applied to a protein microarray having 8,000 features (Invitrogen Protoarray Human Protein Microarray v. 4.0 for immune response biomarker profiling), each feature comprising a distinct human protein (GST fusion) adsorbed to a nitrocellulose coated slide. Application of the synbodies to the microarray was performed in accordance with manufacturer instructions: (see ProtoArray Human Protein Microarray, Invitrogen, Catalog no. PAH052401, Version B, 15 Dec. 2006, 25-0970, Users Manual.) After blocking the array with 1% BSA/PBS/0.1% Tween for 1 hour at 4C with gentle shaking, 120 μl of probing buffer (1×PBS, 5 mM mgC12, 0.5 mM DTT, 0.05% Triton X-100, 5% glycerol, 1% BSA) with synbody was applied to the array. The prescribed cover slip was placed over the array and adjusted to remove air bubbles. The array was incubated in a 50 ml conical tube, printed side up, for 1.5 hours at 4C without shaking. The array was then removed from the conical tube inserted diagonally into the array chamber, kept on ice. 8 ml probing buffer was added to the chamber wall. The cover slip was removed and the array was incubated in probing buffer for 1 minute on ice. […] The array was dried in the dark for 60 minutes at room temperature, after which it was scanned using a fluorescent microarray scanner and data was taken and analyzed.

- Kd (transferrin [1]): 150 ± 50 nM
- Kd (AKT1): ~1 nM
- Kd (transferrin [2]): ~141 nM
- highest affinity target from a library of 8,000 [3]: PCCA
Substance: I: AHKVVPQRQIRHAYNRYGSGKC / II: FRGWAHIFFGPHVIYRGGSG (amide I:21-II:C) [SYN23-26]
